# Reference: patent publication US6664283B1, “Pharmaceuticals for neurogenic pain” (Yamanouchi Pharmaceutical Co., Ltd., priority 1999, dated 2003)
# Like-named read-outs stand apart in the source and are kept apart here.
# Key:
# [1] = test system: nerve ligation-induced neuropathic pain animal models; conditions: cited from earlier work; for cold hyperalgesia / development of mechanical allodynia: intrathecal twice-daily on post-operative days 0-8
# mGluR2 = molecular target: T1, mGluR2 (Rattus norvegicus, UniProt P31421); test: intracellular cAMP after forskolin stimulation in mGluR2-expressing CHO cells; format: cell-based; conditions: up to 100 μM; cAMP formation
# T1 construct: expressed in transfected cells; host or cells: CHO
# Experimental: (§1) The NIH3T3 cell lines expressing individually mGluR1 α and mGluR5a were cultured using DMEM containing 10% dialyzed fetal calf serum and 100 units/ml, 0.1 mg/ml of streptomycin sulfate. The CHO cell lines expressing individually mGluR2, R4, R6 and R7 were cultured using DMEM containing 10% dialyzed fetal calf serum, 100 units/ml, 0.1 mg/ml of streptomycin sulfate and 2 mM glutamine. Using cell lines expressing individually mGluR2, R6 and R7, cAMP formation after forskolin stimulation in the presence of IBMX was measured using a cAMP assay kit as described previously (Neuron, 8, 169-179, 1992).
# mGluR5a = molecular target: T2, mGluR5a (Rattus norvegicus, UniProt P31424); test: intracellular calcium concentration in mGluR5a-expressed NIH3T3 cells; format: cell-based; conditions: up to 10 μM
# T2 construct: expressed in transfected cells; host or cells: NIH3T3
# Experimental: The NIH3T3 cell lines expressing individually mGluR1 α and mGluR5a were cultured using DMEM containing 10% dialyzed fetal calf serum and 100 units/ml, 0.1 mg/ml of streptomycin sulfate. The CHO cell lines expressing individually mGluR2, R4, R6 and R7 were cultured using DMEM containing 10% dialyzed fetal calf serum, 100 units/ml, 0.1 mg/ml of streptomycin sulfate and 2 mM glutamine. Intracellular calcium concentration of the mGluR5a-expressed cells was measured using a spectrofluorometer as described previously (Nature, 383, 89-92, 1996).
# mGluR1 = molecular target: T3, mGluR1 (Rattus norvegicus, UniProt P23385); test: PI hydrolysis assay in cerebellar granule cells (mGluR1 antagonistic activity); format: cell-based
# T3 construct: endogenous in cells; host or cells: primary cerebellar granule cells from Wistar rats aged 7 to 8 days
# Experimental: 1. Measurement of mGluR1 Antagonistic Activity Using Cerebellar Granule Cells The whole brain was removed from each of seven Wistar rats of 7 to 8 days of age after birth (Japan S L C), and then the cerebellum was isolated in an L-15 medium (Gibco) under a stereoscopic microscope. The isolated cerebellum was cut into pieces using a surgical knife and incubated at 37° C. for 15 minutes in 0.25% trypsin solution (Gibco) containing 750 U/ml of DNase I (Sigma). After termination of the enzyme reaction by adding fetal calf serum (JRH Biosciences), the tissue pieces were centrifuged and the supernatant was removed by sucking. After adding 10 ml of a high potassium medium, cells were dissociated by 5 to 6 times passage through a plastic pipette. After filtering the cell dispersion through a nylon mesh (40 μm pore), viable cells were counted. The cells were diluted in the high potassium medium and then seeded at a density of 8×10^5 cells/well onto 24-well culture plates (Sumitomo Bakelite) precoated with poly-L-lysine. […] High potassium medium: BME (Gibco)+10% immobilized fetal calf serum+25 mM KCl+1% penicillin/streptomycin (Gibco) The PI hydrolysis was measured as described by Aramori et al(Neuron, 8, 757-765, 1992). […] The eluate was mixed with a liquid scintillator (Aquasol-2) and the radioactivity in the eluate was determined by a liquid scintillation spectrometer.
# [2] = test system: spinal L5/L6 nerve-ligated rats; test: von Frey hair (VFH) test in spinal L5/L6 nerve-ligated rats; format: in vivo, SD rats; conditions: 30 or 100 mg/kg po; 45 minutes after administration; 7 days after operation
# Experimental: The test was carried out by modifying a previously reported method (Pain, 50, 355-363, 1992). SD rats were used. The left side lumbar nerves (L5 and L6) of each animal were ligated with silk threads under pentobarbital anesthesia. The following test was carried out 7 days after the operation.
# After 45 minutes of oral administration of drug, von Frey hair (VFH) test was carried out to measure a mechanical pain threshold. The measurement was carried out on both hindpaws.
# Although there was little difference in the mechanical pain thresholds between the left and right hindpaw in sham-operated rats in which the threshold was 17 to 20 g (log(g): 1.23-1.30), the obvious reduction of the mechanical pain threshold in the operated side hinpaw was found in spinal L5/L6 nerve-ligated rats.
# Statistical analysis was performed with Dunnet test and carried out on each side hindpaw between the control group and drug-administered groups (** and *** in the table are as follows; **p<0.01, ***p<0.001 vs. control group).
# mGluR6 = molecular target: T4, mGluR6 (Rattus norvegicus, UniProt P35349); test: intracellular cAMP after forskolin stimulation in mGluR6-expressing CHO cells; format: cell-based; conditions: up to 100 μM; cAMP formation
# T4 construct: expressed in transfected cells; host or cells: CHO
# Experimental: as §1
# mGluR7 = molecular target: T5, mGluR7 (Rattus norvegicus, UniProt P35400); test: intracellular cAMP after forskolin stimulation in mGluR7-expressing CHO cells; format: cell-based; conditions: up to 100 μM; cAMP formation
# T5 construct: expressed in transfected cells; host or cells: CHO
# Experimental: as §1
# [3] = test system: STZ-induced diabetes mice; test: tail pinch test in STZ-induced diabetes mice model; format: in vivo, ICR mice; conditions: 45 minutes after administration, STZ mice day 15
# Experimental: The test was carried out by modifying a previously reported method (Pharmacol. Biochem. Behav., 39, 541-544, 1991). STZ at a dose of 200 mg/kg was intraperitoneally administered to 4-weeks-old ICR mice. A pre-drug tail pinch test was carried out in the afternoon at the fourteenth day after the STZ-administration, and animals showing a reaction latency of 3 seconds or less were subjected to the next day's test. At the fifteenth day after the STZ-administration, each drug was administered orally and a post-drug tail pinch test was carried out 45 minutes after the drug administration. […] Statistical analysis was performed with Steel test between the control group and drug-administered group (* and ** in the table are as follows; *p<0.05, **p<0.01 vs. control group).
# mGluR1 α = molecular target: T6, mGluR1 α (Rattus norvegicus, UniProt P23385); test: PI hydrolysis assay in mGluR1 α-expressed NIH3T3 cells; format: cell-based; conditions: 100 μM glutamate, read-out: IC50 value, inhibition of PI formation induced by 100 μM glutamate
# T6 construct: expressed in transfected cells; host or cells: NIH3T3
# Experimental: Measurement of inhibition activity by mGluR1 α expression cell The NIH3T3 cell lines expressing individually mGluR1 α and mGluR5a were cultured using DMEM containing 10% dialyzed fetal calf serum and 100 units/ml, 0.1 mg/ml of streptomycin sulfate. The CHO cell lines expressing individually mGluR2, R4, R6 and R7 were cultured using DMEM containing 10% dialyzed fetal calf serum, 100 units/ml, 0.1 mg/ml of streptomycin sulfate and 2 mM glutamine. Using the mGluR1 α-expressed cells labeled with ^3H-inositol, hydrolysis of phosphatidylinositol was measured as described previously(Nature, 383, 89-92, 1996).
# T3 sequence (P23385 19-1199): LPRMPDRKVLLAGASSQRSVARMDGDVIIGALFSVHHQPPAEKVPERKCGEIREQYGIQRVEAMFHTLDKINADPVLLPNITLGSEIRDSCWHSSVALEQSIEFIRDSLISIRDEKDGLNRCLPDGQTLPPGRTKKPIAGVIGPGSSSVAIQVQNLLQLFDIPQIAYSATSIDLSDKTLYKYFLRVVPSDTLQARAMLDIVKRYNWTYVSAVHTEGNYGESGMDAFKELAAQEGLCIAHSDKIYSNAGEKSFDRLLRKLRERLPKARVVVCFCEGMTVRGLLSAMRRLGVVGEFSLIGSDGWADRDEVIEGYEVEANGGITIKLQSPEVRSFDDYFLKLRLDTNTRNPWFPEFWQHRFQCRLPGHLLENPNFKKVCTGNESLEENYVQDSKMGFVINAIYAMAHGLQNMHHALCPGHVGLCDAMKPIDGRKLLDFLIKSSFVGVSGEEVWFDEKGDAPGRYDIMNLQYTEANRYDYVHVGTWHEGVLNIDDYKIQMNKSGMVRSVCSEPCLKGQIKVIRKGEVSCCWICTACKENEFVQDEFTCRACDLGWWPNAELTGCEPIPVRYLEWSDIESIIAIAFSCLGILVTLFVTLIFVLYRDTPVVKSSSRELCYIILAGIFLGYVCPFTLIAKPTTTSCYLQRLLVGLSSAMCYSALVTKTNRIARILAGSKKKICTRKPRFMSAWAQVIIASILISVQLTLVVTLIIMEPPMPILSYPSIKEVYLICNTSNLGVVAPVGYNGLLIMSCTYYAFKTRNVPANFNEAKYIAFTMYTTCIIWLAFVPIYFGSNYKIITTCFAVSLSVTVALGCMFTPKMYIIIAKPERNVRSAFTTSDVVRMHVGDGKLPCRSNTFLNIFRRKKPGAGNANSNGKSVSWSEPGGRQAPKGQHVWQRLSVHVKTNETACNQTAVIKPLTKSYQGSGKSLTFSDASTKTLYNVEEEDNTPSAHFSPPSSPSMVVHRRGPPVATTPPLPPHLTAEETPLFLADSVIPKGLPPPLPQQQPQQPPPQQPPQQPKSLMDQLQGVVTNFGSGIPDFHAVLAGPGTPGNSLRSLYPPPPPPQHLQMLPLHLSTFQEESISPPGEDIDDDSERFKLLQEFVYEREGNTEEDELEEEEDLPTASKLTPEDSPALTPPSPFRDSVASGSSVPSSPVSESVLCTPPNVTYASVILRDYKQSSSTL
# T6 sequence (P23385 19-1199): as above
# T5 sequence (P35400 35-915): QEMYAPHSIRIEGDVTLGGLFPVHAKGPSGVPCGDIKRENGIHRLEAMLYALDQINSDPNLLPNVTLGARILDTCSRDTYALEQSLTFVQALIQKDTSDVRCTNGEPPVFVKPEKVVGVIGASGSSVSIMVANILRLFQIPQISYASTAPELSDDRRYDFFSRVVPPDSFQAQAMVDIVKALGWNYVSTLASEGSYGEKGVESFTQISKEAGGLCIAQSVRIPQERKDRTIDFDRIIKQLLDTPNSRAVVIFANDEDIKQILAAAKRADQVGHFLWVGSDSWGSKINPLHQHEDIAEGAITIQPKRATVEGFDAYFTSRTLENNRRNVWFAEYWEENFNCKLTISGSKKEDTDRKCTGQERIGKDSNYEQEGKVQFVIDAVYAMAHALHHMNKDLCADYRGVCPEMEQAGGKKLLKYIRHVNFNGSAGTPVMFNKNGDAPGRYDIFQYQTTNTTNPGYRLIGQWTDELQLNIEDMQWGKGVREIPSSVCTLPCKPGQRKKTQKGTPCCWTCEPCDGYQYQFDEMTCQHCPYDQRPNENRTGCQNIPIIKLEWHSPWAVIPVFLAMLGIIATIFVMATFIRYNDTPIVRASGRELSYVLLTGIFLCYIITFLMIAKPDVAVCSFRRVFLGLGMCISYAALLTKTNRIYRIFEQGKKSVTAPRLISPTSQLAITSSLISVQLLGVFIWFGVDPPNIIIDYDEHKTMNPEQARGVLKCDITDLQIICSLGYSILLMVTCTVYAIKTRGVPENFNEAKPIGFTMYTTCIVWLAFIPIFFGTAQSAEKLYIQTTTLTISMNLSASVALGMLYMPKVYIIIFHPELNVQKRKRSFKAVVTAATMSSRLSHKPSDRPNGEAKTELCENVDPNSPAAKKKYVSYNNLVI
# T1 sequence (P31421 19-872): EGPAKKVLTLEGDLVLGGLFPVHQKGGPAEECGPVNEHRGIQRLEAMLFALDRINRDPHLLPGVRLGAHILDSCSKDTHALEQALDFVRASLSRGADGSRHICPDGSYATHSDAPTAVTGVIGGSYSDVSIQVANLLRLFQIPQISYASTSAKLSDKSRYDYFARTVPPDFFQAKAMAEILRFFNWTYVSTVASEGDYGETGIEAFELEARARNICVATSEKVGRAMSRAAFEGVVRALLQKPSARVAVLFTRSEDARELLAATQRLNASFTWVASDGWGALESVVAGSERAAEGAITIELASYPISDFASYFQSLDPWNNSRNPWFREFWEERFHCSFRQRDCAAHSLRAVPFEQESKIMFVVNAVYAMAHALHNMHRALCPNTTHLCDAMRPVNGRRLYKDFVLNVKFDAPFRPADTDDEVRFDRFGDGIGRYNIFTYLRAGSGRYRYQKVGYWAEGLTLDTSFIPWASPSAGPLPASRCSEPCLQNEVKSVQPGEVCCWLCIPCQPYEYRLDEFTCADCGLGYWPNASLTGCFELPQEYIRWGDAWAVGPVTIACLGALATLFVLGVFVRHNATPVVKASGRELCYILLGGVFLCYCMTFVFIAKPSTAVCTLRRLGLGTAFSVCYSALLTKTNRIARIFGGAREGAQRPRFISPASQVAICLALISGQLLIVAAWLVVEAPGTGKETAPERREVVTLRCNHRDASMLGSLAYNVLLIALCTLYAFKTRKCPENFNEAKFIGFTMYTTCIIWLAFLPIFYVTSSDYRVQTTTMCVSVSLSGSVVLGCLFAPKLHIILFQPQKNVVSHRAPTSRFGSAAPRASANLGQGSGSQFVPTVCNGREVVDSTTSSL
# T2 sequence (P31424 21-1171 isoform P31424-2 limits assumed): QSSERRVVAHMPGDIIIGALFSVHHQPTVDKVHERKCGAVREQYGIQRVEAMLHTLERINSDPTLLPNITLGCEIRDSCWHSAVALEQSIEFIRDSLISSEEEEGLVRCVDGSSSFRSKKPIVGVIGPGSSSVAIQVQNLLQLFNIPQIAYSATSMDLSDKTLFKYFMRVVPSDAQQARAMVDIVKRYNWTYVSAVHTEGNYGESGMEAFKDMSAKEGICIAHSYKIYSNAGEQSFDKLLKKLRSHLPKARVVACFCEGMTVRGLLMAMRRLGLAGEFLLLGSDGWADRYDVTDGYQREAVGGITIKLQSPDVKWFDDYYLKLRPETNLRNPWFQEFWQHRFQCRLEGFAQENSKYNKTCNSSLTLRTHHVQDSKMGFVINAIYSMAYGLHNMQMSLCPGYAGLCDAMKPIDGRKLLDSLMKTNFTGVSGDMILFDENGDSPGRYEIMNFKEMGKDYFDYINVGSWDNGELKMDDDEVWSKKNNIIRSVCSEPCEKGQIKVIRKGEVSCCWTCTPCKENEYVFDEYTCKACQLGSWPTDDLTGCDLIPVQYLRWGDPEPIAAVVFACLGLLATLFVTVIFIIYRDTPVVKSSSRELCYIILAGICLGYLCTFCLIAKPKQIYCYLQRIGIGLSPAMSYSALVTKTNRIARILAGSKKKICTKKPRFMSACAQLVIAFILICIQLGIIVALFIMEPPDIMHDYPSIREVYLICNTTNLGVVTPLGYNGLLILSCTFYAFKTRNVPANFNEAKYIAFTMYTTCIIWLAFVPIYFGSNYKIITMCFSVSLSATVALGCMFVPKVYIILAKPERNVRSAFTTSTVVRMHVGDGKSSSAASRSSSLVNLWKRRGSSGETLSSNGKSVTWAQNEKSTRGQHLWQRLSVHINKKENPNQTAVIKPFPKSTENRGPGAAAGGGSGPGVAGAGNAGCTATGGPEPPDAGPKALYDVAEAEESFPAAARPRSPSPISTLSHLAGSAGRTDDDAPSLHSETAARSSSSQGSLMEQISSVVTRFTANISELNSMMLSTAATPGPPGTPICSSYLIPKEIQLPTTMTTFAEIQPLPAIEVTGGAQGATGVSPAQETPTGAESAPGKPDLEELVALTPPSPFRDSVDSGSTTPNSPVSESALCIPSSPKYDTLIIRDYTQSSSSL
# T4 sequence (P35349 24-871): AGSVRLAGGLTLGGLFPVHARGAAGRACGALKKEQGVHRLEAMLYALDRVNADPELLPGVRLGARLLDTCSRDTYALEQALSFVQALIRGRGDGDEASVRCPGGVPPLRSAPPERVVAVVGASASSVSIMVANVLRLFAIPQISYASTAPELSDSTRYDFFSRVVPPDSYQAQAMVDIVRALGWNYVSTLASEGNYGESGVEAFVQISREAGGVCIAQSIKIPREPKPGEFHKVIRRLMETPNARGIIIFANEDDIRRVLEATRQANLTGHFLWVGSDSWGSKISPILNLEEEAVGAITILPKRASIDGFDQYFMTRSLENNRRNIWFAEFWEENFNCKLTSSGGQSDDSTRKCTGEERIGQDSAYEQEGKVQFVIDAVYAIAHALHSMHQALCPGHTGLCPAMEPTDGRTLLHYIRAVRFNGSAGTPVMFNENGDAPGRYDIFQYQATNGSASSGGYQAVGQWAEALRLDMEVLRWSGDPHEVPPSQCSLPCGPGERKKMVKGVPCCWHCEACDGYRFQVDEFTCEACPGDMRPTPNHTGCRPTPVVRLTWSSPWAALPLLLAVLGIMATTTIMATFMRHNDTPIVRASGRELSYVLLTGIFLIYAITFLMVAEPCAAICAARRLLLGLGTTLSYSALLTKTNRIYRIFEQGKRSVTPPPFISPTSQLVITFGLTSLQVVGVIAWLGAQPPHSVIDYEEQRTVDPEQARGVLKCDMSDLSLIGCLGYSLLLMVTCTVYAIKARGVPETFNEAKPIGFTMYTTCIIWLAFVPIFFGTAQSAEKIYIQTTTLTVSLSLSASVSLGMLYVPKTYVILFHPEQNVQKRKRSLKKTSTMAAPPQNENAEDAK
Structure (SMILES),cold hyperalgesia ([1]; assessed on days 4 and 8),development of mechanical allodynia ([1]; assessed on days 4 and 8),cold hyperalgesia ([1]; assessed on days 12 and 16),development of mechanical allodynia ([1]; assessed on days 12 and 16),"development of lowered pain threshold ([1]; intrathecal twice-daily on post-operative days 8-11, any day of the test)",agonist or antagonist activity for mGluR2 (mGluR2),agonist or antagonist activity for mGluR5 (mGluR5a),IC50 (mGluR1),mechanical pain threshold in the operated side hindpaw (VFH test) [2],agonist or antagonist activity for mGluR6 (mGluR6),agonist or antagonist activity for mGluR7 (mGluR7),reaction latency in tail pinch test ([3]; 30 mg/kg po),IC50 (mGluR1 α),reaction latency in tail pinch test ([3]; 10 mg/kg po)
"N[C@H](C(=O)O)c1ccc(C(=O)O)cc1 [(S)-4CPG, (S)-4-carboxyphenylglycine]",attenuated cold hyperalgesia,inhibited a development of mechanical allodynia,did not have an effect,did not have an effect,did not inhibit development of lowered pain threshold,,,,,,,,,
"Cc1c(C(=O)N(C)C2CCCCC2)sc2nc3ccc(N)cc3n12.Cl.Cl [compound A, 6-amino-N-cyclohexyl-N, 3-dimethylthiazolo[3,2-a]benzoimidazole-2-carboxamide dihydrochloride]",,,,,,did not show any agonist or antagonist activity,did not show any agonist or antagonist activity,22 nM,improved lowered mechanical pain thresholds,did not show any agonist or antagonist activity,did not show any agonist or antagonist activity,significantly prolonged the reaction latency,,
"C[C@H]1CCCC[C@H]1N(C)C(=O)c1cn2c(nc3ccc(N)cc32)s1.Cl.Cl [compound B, (+)-(1R,2S)-6-amino-N-methyl-N-(2-methylcyclohexyl)thiazolo [3,2-a]benzoimidazole-2-carboxamide dihydrochloride]",,,,,,,,2 nM,,,,,1.7 nM,significantly prolonged the latency
